Paper PMC5772648, “Targeted NUDT5 inhibitors block hormone signaling in breast cancer cells” (Nature Communications, 2018)
“And” between values parts separate entries of the source, which are not always exact repeats. Equal values may be shown once.

What was measured:
[1] = tested on: nuclear ATP production in T47D^WT cells; experiment: nuclear ATP visualization by bioluminescence (Nuc-luc reporter) after R5020; assay type: cell-based; settings: 10 nM R5020
Method: For hormone and inhibitor treatments, normal T47D^WT cells or cells containing a single copy of luciferase under the control of the mouse mammary tumor virus (MMTV) promoter (T47D^M) were used[23]. Prior to hormone induction, cells were grown in phenol red-free RPMI medium supplemented with 10% dextran-coated charcoal-treated FBS (DCC/FBS). After 16 h in serum-free conditions, cells were pre-incubated with DMSO (vehicle) or NUDT5 inhibitor for 2 h at the indicated dose before addition of R5020 (10 nM) or vehicle (ethanol, EtOH) for the allotted time.
T47D^WT cells were seeded in RPMI in black-walled 96-well plates and transfected using Lipofectamine 2000® (Invitrogen, manufacturer’s instructions) with the nuclear-targeted luciferase constructs (Nuc-luc FRTTO[53]) at a final concentration of 50 ng DNA/well for 48 h. 16 h prior to hormone (R5020, 10 nM) exposure, cells were synchronized by serum starvation. Bioluminescence was activated by addition of 100 µl D-luciferin (1 mg/mL water, Sigma) and ATP was quantified using an IVIS system (Xenogen Corp).

human NUDT5 = molecular target: T1, human NUDT5 (Homo sapiens, UniProt Q9UKK9); experiment: enzyme-coupled malachite green assay (MG assay), ADPR hydrolysis; assay type: biochemical; settings: NUDT5, ADPR substrate; read-out: MG assay IC50 (Biochemical IC50)
T1 construct: His-tag (N); made in house; host or cells: E. coli BL21 (DE3) R3 pRARE2
Source text: We next sought to develop small molecule NUDT5 inhibitors to further probe the role of NUDT5 in ADPR metabolism. A high-throughput, screening-compatible NUDT5 inhibition assay was established using slight modifications to the aforementioned MG procedure (Fig. 2a)[15],[27]. Briefly, ADPR, NUDT5 and calf intestinal alkaline phosphatase (CIP) were combined in a coupled enzymatic assay, as described in the online methods. In turn, ADPR was hydrolyzed to AMP and R5P by NUDT5, and the released R5P was further degraded to ribose and inorganic phosphate (Pi) by CIP. Free Pi was subsequently detected using the malachite green reagent. The screen was conducted using a combination of the Chemical Biology Consortium of Sweden (CBCS) primary screening set and several commercial libraries from Enamine, TimTec, Maybridge and ChemDiv. In total, ~72 000 distinct chemical entities were screened for their potential inhibition of NUDT5 at a concentration of 10 µM (Supplementary Table 1, Supplementary Fig. 2a, b). Execution of this screening campaign was split between two different occasions. The screening performance in the two screening campaigns was excellent (average z´ factors of 0.87 and 0.85, Supplementary Fig. 2c), resulting in a hit limit as defined by the average and three standard deviations of the library compound responses of 10.1 and 18.4% inhibition, respectively (Supplementary Table 1, Supplementary Fig. 2a, b). This translated to 53 and 475 hits (0.3 and 0.8% hit rate, respectively), yielding 528 total hits from the 2 separate screening occasions.
Activity of NUDT5 and MTH1 with a panel of potential substrates [2-OH-ATP, 2-OH-dATP, 8-oxo-dGDP, GDP and 8-oxo-GTP (Jena Biosciences), 8-oxo-dGTP (TriLink Biotechnologies), dATP (ThermoFisher Scientific), dGTP, GTP and ADPR (Sigma-Aldrich)] was assessed in reaction buffer (100 mM Tris Acetate pH 7.5, 40 mM NaCl, 10 mM Mg Acetate) at 22 °C. For ADPR, alkaline phosphatase from bovine intestinal mucosa (10 U/ml; Sigma-Aldrich) was added as coupled enzyme, while other substrates were coupled to E. coli pyrophosphatase (0.2 U/mL, Sigma-Aldrich). After 30 min incubation with shaking, formed inorganic phosphate was detected by addition of malachite green reagent. Absorbance at 630 nm was read after 15 min incubation with shaking using a Hidex Sense plate reader. The potency of NUDT5 inhibitors was assessed similarly as above (and in the screening campaign) by monitoring ADPR hydrolysis; details are in the Supplementary Information.
Small molecule library composition
The screen for NUDT5 inhibitors was conducted at Chemical Biology Consortium Sweden (www.cbcs.se). Two screening campaigns completed in August 2012 and in March 2013 respectively comprised a combination of in-house and commercially available libraries, amounting to a total of 75679 compounds. The commercial compounds originate from Enamine, TimTec, MayBridge and ChemDiv. The in-house libraries were donated by Biovitrum AB, Sweden (the origin and composition is described previously)2. For long-term storage, the compounds are kept frozen at - 20°C as 10 mM solutions in dimethyl sulfoxide (DMSO) under low humidity conditions in REMP 96 Storage Tube Racks in a REMP Small-Size Store™. To facilitate screening an aliquot of the stock solutions have been transferred to Labcyte 384 LDV plates (LP-0200) to enable dispensing using an Echo 550™ acoustic liquid handler (LabCyte). For both screening campaigns 40 nl of the compound solutions were dispensed directly into columns 1-22 of the 384-well assay plates (Nunc 242757), while columns 23 and 24 were reserved for controls as outlined below. The plates were sealed with a Peelable Aluminium seal (Agilent 24210-001) using a PlateLoc thermal microplate sealer (Agilent) and kept at room temperature until used. The final compound concentration in the screen was 10 µM with a final DMSO concentration of […]
Enzymatic assay applied for screening and hit confirmation […]

Structure (SMILES)	nuclear luminescence (nuclear ATP) after R5020 ([1]; 15 µM)	IC50 (human NUDT5)	nuclear luminescence (nuclear ATP) after R5020 ([1]; 1.5 µM)
CCN1CCN(c2nc3c(c(=O)n(C)c(=O)n3C)n2Cc2nnc(-c3ccc(Cl)c(Cl)c3)o2)CC1 [TH5424]	strong luminescence was observed	39 nM	
Cn1c(=O)c2c(nc(N3CCNCC3)n2Cc2nnc(-c3ccc(Cl)c(Cl)c3)o2)n(C)c1=O [TH5427]		29.1 nM and 29 nM	marked reduction in nuclear luminescence
